Measured values from EP4755878A1, “PHOTOCHROMIC COMPOUND, PHENOL DERIVATIVE, CURABLE COMPOSITION, OPTICAL ARTICLE, LENS, AND EYEGLASS” (TOKUYAMA CORPORATION, priority 2023, dated 2025).

Key:
[1] = Photochromic properties of photochromic layer (binder sheet) made by binder method; details: for Color developing density at 23°C: absorbance difference after 240 seconds irradiation at 23°C; for Color developing density at 35°C: absorbance difference after 240 seconds irradiation at 35°C; for Maximum absorption wavelength: after color development, second absorption wavelength (lower line of pair)
Description: This is the maximum absorption wavelength after color development determined by a spectrophotometer manufactured by Otsuka Electronics Co., Ltd. (instantaneous multichannel photo detector MCPD3000) and was used as an index of a color tone upon color development.
This is a difference between an absorbance {ε(240)} after irradiation with light at the above-mentioned maximum absorption wavelength at 23°C for 240 seconds and an absorbance ε(0) when not irradiated with light, and was used as an index of a color developing density. The higher this value is, the better photochromic property is.
This is a difference between an absorbance {ε(240)} after irradiation with light at first and second absorption wavelengths at 35°C for 240 seconds and an absorbance ε(0) when not irradiated with light, and was used as an index of a color developing density. The higher this value is, the better photochromic property is.
Color developing density at 35°C (A35) /color developing density at 23°C (A23) × 100(%). The higher this value is, the smaller the difference in color developing density between the higher temperature and the lower temperature is, and the smaller the temperature dependence is.
This is the period of time required for the absorbance at a maximum absorption wavelength of a sample to decrease to 1/2 of {ε(240)-ε(0)}, when light irradiation is stopped after the sample had been irradiated with light at 23°C for 240 seconds, and was used as an index of a color fading rate. The shorter this period of time is, the higher the color fading rate is.
A binder sheet was made according to the following method. […] As the first and second optical sheets, polycarbonate sheets with a thickness of 400 µm were used.
Note that the photochromic compound was added to be 0.25 mmol relative to 100 parts by mass of the terminally non-reactive urethaneurea resin.

[2] = Photochromic properties of photochromic laminate (plastic lens) made by coating method; format: physicochemical; details: for Color developing density at 23°C: absorbance difference after 240 seconds irradiation at 23°C; for Color developing density at 35°C: absorbance difference after 240 seconds irradiation at 35°C; for Maximum absorption wavelength: after color development, second absorption wavelength (lower line of pair)
In short: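 Curable coating with photochromic compound at 0.25 mmol per 100 g radically-polymerizable methacrylate monomer blend, spin-coated to 40 µm on primed, alkali-etched thiourethane lens (2 mm, n 1.60). Cured by metal halide lamp 200 mW/cm^2, 90 s under nitrogen, then 110°C for 1 h.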

[3] = Photochromic properties of photochromic cured product made by kneading method; format: physicochemical; details: for Maximum absorption wavelength: 1 mm, after color development, second absorption wavelength (lower line of pair); for Color developing density at 23°C: absorbance difference after 240 seconds irradiation at 23°C; for Color developing density at 35°C: absorbance difference after 240 seconds irradiation at 35°C
Source text: First, the photochromic compound obtained in Example 1, additives, and polymerizable compounds were mixed to obtain a curable composition. As the polymerizable compounds, a blend of the following polymerizable monomers in combination was used. • 1,3-Bis(isocyanatomethyl)cyclohexane: 36.7 parts by mass Pentaerythritol tetrakis(3-mercaptopropionate): 39.4 parts by mass • Polyoxyethylene polyoxypropylene lauryl ether (WONDERSURF 140 from Aoki Oil Industrial Co., Ltd.): 17.4 parts by mass 1-Decanethiol: 2.8 parts by mass • RX-1 prepared according to the method described in Patent Document 12: 3.8 parts by mass Note that in the curable composition, the photochromic compound was added to be 0.106 mmol taking the total amount of the polymerizable monomers as 100 g.
The following additives were used. Dimethyltin dichloride: 0.05 parts by mass • Irganox 245 from BASF Japan Ltd.: 0.1 parts by mass • 2-Ethylhexyl 4-methoxycinnamate: 0.6 parts by mass
The prepared curable composition was sufficiently degassed, and then injected into a glass mold provided with a gap of 1 mm, and the curable composition was polymerized via casting polymerization. […] After the polymerization, the cured product was removed from the glass mold, to obtain photochromic cured product having a thickness of 1 mm. The resulting photochromic cured product was evaluated in the same manner as in Example 23.
(Examples 51 to 60, and Comparative Examples 11 to 14) Photochromic cured products were formed using the photochromic compound shown in Table 6 in the same manner as in Example 50.

Color developing density at 23°C ([1]; first absorption wavelength)	Color developing density at 23°C ([1]; second absorption wavelength)	Color developing density at 35°C ([1]; first absorption wavelength)	Color developing density at 35°C ([1]; second absorption wavelength)	Maximum absorption wavelength [1]	Color developing density at 23°C ([2]; first absorption wavelength)	Color developing density at 23°C ([2]; second absorption wavelength)	Color developing density at 35°C ([2]; first absorption wavelength)	Color developing density at 35°C ([2]; second absorption wavelength)	Maximum absorption wavelength [2]	Maximum absorption wavelength [3]	Color developing density at 23°C ([3]; first absorption wavelength)	Color developing density at 23°C ([3]; second absorption wavelength)	Color developing density at 35°C ([3]; first absorption wavelength)	Color developing density at 35°C ([3]; second absorption wavelength)	SMILES
0.90 -	1.04 -	0.63 -	0.74 -	608 nm	0.87 -	1.02 -	0.63 -	0.75 -	608 nm	616 nm	0.90 -	1.04 -	0.66 -	0.78 -	COc1ccc(C2(c3ccc(OC)cc3)C=Cc3c4c(c5ccc(OC)cc5c3O2)-c2ccc(N3CCOc5ccccc53)cc2C4(C)C)cc1 [Formula (13-2)]
0.73 -	1.06 -	0.51 -	0.75 -	594 nm	0.71 -	1.04 -	0.48 -	0.74 -	593 nm	600 nm	0.74 -	1.07 -	0.54 -	0.81 -	COc1ccc(C2(c3ccc(OC)cc3)C=Cc3c4c(c5ccc(OC)cc5c3O2)-c2ccc(OC)cc2C4(C)C)cc1 [Formula (C), reference compound]
